Laboratory results published in patent US7053046B2 (priority 2001, dated 2006).

Assays:
Assay type in all cases: cell-based, human
VEGF C = test system: VEGF C
VEGF B = test system: VEGF B
VEGF A = test system: VEGF A

| Compound | VEGF C gene expression ratio treated/untreated (up) (VEGF C) | VEGF B gene expression ratio treated/untreated (up) (VEGF B) | VEGF A gene expression ratio treated/untreated (up) (VEGF A) |
| --- | --- | --- | --- |
| [Cl-].[Cl-].[Co+2] [CoCl2] | up 3.0 x | up 1.4 x | up 3.4 x |
| YGRKKRRQRRR-DLDLEMLA(Hyp)YIPMDDDFQL [ODD peptide] | up 4.4 x | up 1.4 x | up 3.2 x |
